Reference: US5210193A, “Piperazine derivatives” (American Cyanamid Company, priority 1990, dated 1993)
In brackets after ≈: the same amount, converted by molar mass. Like-named read-outs stand apart in the source and are kept apart here. Blank lines part the entries; values can stand above or below the compound they belong to.

Assays:
[1] = system: Streptococcus faecalis VGH 84-65; assay: in vitro antibacterial MIC, agar plate dilution; format: cell-based; settings: 18 hours, 35° C.
Method in brief: (§1)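 Minimal inhibitory concentrations came from agar plate dilution in Mueller-Hinton medium. Each organism was delivered at roughly 10^4 CFU by Steers replicator. Plates were read for visible growth after 18 hours at 35° C, values in mcg/ml.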

[2] = system: Morganella morganii VGH 84-11; assay: in vitro antibacterial MIC, agar plate dilution; format: cell-based; settings: 35° C.
Method in brief: as §1

[3] = system: Escherichia coli CMC 84-11; assay: in vitro antibacterial MIC, agar plate dilution; format: cell-based; settings: 35° C.
Method in brief: as §1

[4] = system: Pseudomonas aeruginosa LL-1244; assay: in vitro antibacterial MIC, agar plate dilution; format: cell-based; settings: 18 hours, 35° C.
Method in brief: as §1

[5] = system: Klebsiella pneumoniae MOR 84-4; assay: in vitro antibacterial MIC, agar plate dilution; format: cell-based; settings: 35° C.
Method in brief: as §1

[6] = system: Enterobacter cloacae K 84-10; assay: in vitro antibacterial MIC, agar plate dilution; format: cell-based; settings: 18 hours, 35° C.
Method in brief: as §1

[7] = system: Enterobacter aerogenes VGH 84-36; assay: in vitro antibacterial MIC, agar plate dilution; format: cell-based; settings: 35° C.
Method in brief: as §1

[8] = system: Staphylococcus aureus Smith; assay: in vitro antibacterial MIC, agar plate dilution; format: cell-based; settings: 35° C.
Method in brief: as §1

[9] = system: Morganella morganii CMC 84-37; assay: in vitro antibacterial MIC, agar plate dilution; format: cell-based; settings: 18 hours, 35° C.
Method in brief: as §1

[10] = system: Staphylococcus aureus ATTC 29213; assay: in vitro antibacterial MIC, agar plate dilution; format: cell-based; settings: 18 hours, 35° C.
Method in brief: as §1

[11] = system: Staphylococcus epidermidis VGH 84-40; assay: in vitro antibacterial MIC, agar plate dilution; format: cell-based; settings: 18 hours, 35° C.
Method in brief: as §1

[12] = system: Enterobacter cloacae VGH 84-37; assay: in vitro antibacterial MIC, agar plate dilution; format: cell-based; settings: 35° C.
Method in brief: as §1

[13] = system: Streptococcus faecalis ATTC 29212; assay: in vitro antibacterial MIC, agar plate dilution; format: cell-based; settings: 18 hours, 35° C.
Method in brief: as §1

[14] = system: Staphylococcus aureus VGH 84-46; assay: in vitro antibacterial MIC, agar plate dilution; format: cell-based; settings: 18 hours, 35° C.
Method in brief: as §1

[15] = system: Staphylococcus epidermidis IO 83-58; assay: in vitro antibacterial MIC, agar plate dilution; format: cell-based; settings: 18 hours, 35° C.
Method in brief: as §1

[16] = system: Staphylococcus epidermidis CMC 83-135; assay: in vitro antibacterial MIC, agar plate dilution; format: cell-based; settings: 18 hours, 35° C.
Method in brief: as §1

[17] = system: Acinetobacter calcoaceticus MOR 84-43; assay: in vitro antibacterial MIC, agar plate dilution; format: cell-based; settings: 18 hours, 35° C.
Method in brief: as §1

[18] = system: Staphylococcus aureus VGH 84-45; assay: in vitro antibacterial MIC, agar plate dilution; format: cell-based; settings: 18 hours, 35° C.
Method in brief: as §1

[19] = system: Staphylococcus Spp saprophiticus VGH 84-50; assay: in vitro antibacterial MIC, agar plate dilution; format: cell-based; settings: 18 hours, 35° C.
Method in brief: as §1

[20] = system: Serratia marcescens K 84-18; assay: in vitro antibacterial MIC, agar plate dilution; format: cell-based; settings: 18 hours, 35° C.
Method in brief: as §1

[21] = system: Pseudomonas aeruginosa VGH 84-4; assay: in vitro antibacterial MIC, agar plate dilution; format: cell-based; settings: 35° C.
Method in brief: as §1

[22] = system: Staphylococcus aureus CMC 83-127; assay: in vitro antibacterial MIC, agar plate dilution; format: cell-based; settings: 18 hours, 35° C.
Method in brief: as §1

[23] = system: Staphylococcus aureus CMC 83-128; assay: in vitro antibacterial MIC, agar plate dilution; format: cell-based; settings: 18 hours, 35° C.
Method in brief: as §1

[24] = system: Escherichia coli PRNT 311; assay: in vitro antibacterial MIC, agar plate dilution; format: cell-based; settings: 18 hours, 35° C.
Method in brief: as §1

[25] = system: Escherichia coli ATCC 25922; assay: in vitro antibacterial MIC, agar plate dilution; format: cell-based; settings: 35° C.
Method in brief: as §1

[26] = system: Escherichia coli CMC 84-16; assay: in vitro antibacterial MIC, agar plate dilution; format: cell-based; settings: 18 hours, 35° C.
Method in brief: as §1

[27] = system: Serratia marcescens F 0-35; assay: in vitro antibacterial MIC, agar plate dilution; format: cell-based; settings: 18 hours, 35° C.
Method in brief: as §1

Klebsiella pneumoniae AD [28] = assay: in vitro antibacterial MIC, agar plate dilution; format: cell-based; settings: 35° C.
Method in brief: as §1

Escherichia coli NAR 311 = assay: in vitro antibacterial MIC, agar plate dilution; format: cell-based; settings: 18 hours, 35° C.
Method in brief: as §1

[29] = system: Proteus rettgeri CMC 84-41; assay: in vitro antibacterial MIC, agar plate dilution; format: cell-based; settings: 35° C.
Method in brief: as §1

[30] = system: Staphylococcus aureus ATCC 25913; assay: in vitro antibacterial MIC, agar plate dilution; format: cell-based; settings: ATCC25913, 18 hours, 35° C.
Method in brief: as §1

Klebsiella pneumoniae AD [31] = assay: in vivo antibacterial activity, survival of infected mice (Table II); set-up: species or system Charles River CD-1 mice; settings: subcutaneous
Experimental: (§2) Charles River CD-1 mice were infected with either Klebsiella pneumoniae AD or Staphylococcus aureus Smith. A single subcutaneous dose of the test compound was administered 1/2 hour after infection. […] The results appear in Tables II and III, wherein the representative test compounds are identified by the number of their hereinafter described examples.

[32] = system: Staphylococcus aureus Smith; assay: in vivo antibacterial activity, survival of infected mice (Table III); set-up: species or system Charles River CD-1 mice; settings: subcutaneous
Experimental: as §2

MIC [1]: 4 µg/mL (≈ 10.8 µM) | MIC ([2]; 18 hours): 0.12 µg/mL (≈ 0.325 µM) | MIC ([3]; 18 hours): 0.06 µg/mL (≈ 0.162 µM) | MIC [4]: 8 µg/mL (≈ 21.7 µM) | MIC ([5]; 18 hours): 0.12 µg/mL (≈ 0.325 µM) | MIC [6]: 0.06 µg/mL (≈ 0.162 µM) | MIC ([7]; 18 hours): 0.12 µg/mL (≈ 0.325 µM) | MIC ([8]; 18 hours): 0.25 µg/mL (≈ 0.677 µM) | MIC [9]: 0.12 µg/mL (≈ 0.325 µM) | MIC [10]: 0.25 µg/mL (≈ 0.677 µM) | MIC [11]: 0.25 µg/mL (≈ 0.677 µM) | MIC ([12]; 18 hours): 0.12 µg/mL (≈ 0.325 µM) | MIC [13]: 4 µg/mL (≈ 10.8 µM) | MIC [14]: 0.25 µg/mL (≈ 0.677 µM) | MIC [15]: 0.25 µg/mL (≈ 0.677 µM) | MIC [16]: 0.25 µg/mL (≈ 0.677 µM) | MIC [17]: 0.5 µg/mL (≈ 1.35 µM) | MIC [18]: 0.12 µg/mL (≈ 0.325 µM) | MIC [19]: 1 µg/mL (≈ 2.71 µM) | MIC [20]: 0.25 µg/mL (≈ 0.677 µM) | MIC ([21]; 18 hours): 1 µg/mL (≈ 2.71 µM) | MIC [22]: 0.12 µg/mL (≈ 0.325 µM) | MIC [23]: 0.25 µg/mL (≈ 0.677 µM) | MIC [24]: 0.06 µg/mL (≈ 0.162 µM) | MIC ([25]; 18 hours): 0.06 µg/mL (≈ 0.162 µM) | MIC [26]: 0.06 µg/mL (≈ 0.162 µM) | MIC [27]: 0.25 µg/mL (≈ 0.677 µM) | MIC (Klebsiella pneumoniae AD [28]; 18 hours): 0.12 µg/mL (≈ 0.325 µM) | MIC (Escherichia coli NAR 311): 1 µg/mL (≈ 2.71 µM) | MIC ([29]; 18 hours): 0.25 µg/mL (≈ 0.677 µM)
Compound: CCn1cc(C(=O)O)c(=O)c2cc(F)c(N3CCNC(CF)C3)c(F)c21 (single isomer, unassigned; (+)) [Example 65, (+)-N-Ethyl-6,8-difluoro-7-[3-(fluoromethyl)-1-piperazinyl]-1,4-dihydro-4-oxo-3-quinolinecarboxylic acid]

MIC ([2]; VGH8411, 18 hours, read-out: MIC): 16 µg/mL (≈ 34 µM) | MIC ([3]; Escherichia coli, CMC8411, 18 h, read-out: MIC): 16 µg/mL (≈ 34 µM) | MIC ([5]; Klebsiella pneumoniae, MOR844, 18 h, read-out: MIC): 32 µg/mL (≈ 68.1 µM) | MIC ([7]; Klebsiella aerogenes, VGH8436, 18 hours, read-out: MIC): 128 µg/mL (≈ 272 µM) | MIC ([8]; Staphylococcus aureus, 18 h, read-out: MIC): ≤ 0.12 µg/mL | MIC ([12]; Enterobacter cloacae, VGH8437, 18 h, read-out: MIC): 16 µg/mL (≈ 34 µM) | MIC [30]: 2 µg/mL (≈ 4.26 µM) | MIC ([21]; Pseudomonas aeruginosa, VGH844, 18 h, read-out: MIC): > 256 µg/mL | MIC ([25]; Escherichia coli, ATCC25922, 18 h, read-out: MIC): 16 µg/mL (≈ 34 µM) | MIC (Klebsiella pneumoniae AD [28]; Klebsiella pneumoniae, 18 h, read-out: MIC): 16 µg/mL (≈ 34 µM) | MIC ([29]; Providencia rettgeri, CMC8441, 18 h, read-out: MIC): 16 µg/mL (≈ 34 µM)
Compound: CCn1cc(C(=O)O)c(=O)c2cc(F)c(N3CCNC(c4cc5cc(Cl)ccc5o4)C3)cc21 (centres unmarked) [Example 18, 7-[3-(5-Chloro-2-benzofuranyl)-1-piperazinyl]-1-ethyl-6-fluoro-1,4-dihydro-4-oxo-3-quinolinecarboxylic acid]
Survival Ratio 7 Days After Infection (Klebsiella pneumoniae AD [31]; 0.25 mg/kg single dose): 0/5 | Survival Ratio 7 Days After Infection (Klebsiella pneumoniae AD [31]; 1 mg/kg single dose): 0/5 | Survival Ratio 7 Days After Infection (Klebsiella pneumoniae AD [31]; 4 mg/kg single dose): 1/5 | Survival Ratio 7 Days After Infection (Klebsiella pneumoniae AD [31]; 16 mg/kg single dose): 4/5 | Survival Ratio 7 Days After Infection (Klebsiella pneumoniae AD [31]; 64 mg/kg single dose): 5/5 | Survival Ratio 7 Days After Infection ([32]; 0.5 mg/kg single dose): 0/5 | Survival Ratio 7 Days After Infection ([32]; 1 mg/kg single dose): 0/5 | Survival Ratio 7 Days After Infection ([32]; 2 mg/kg single dose): 0/5 | Survival Ratio 7 Days After Infection ([32]; 4 mg/kg single dose): 0/5 | Survival Ratio 7 Days After Infection ([32]; 8 mg/kg single dose): 2/5

Compound: FCC1CNCCN1 (centres unmarked) [Example 23, 2-(Fluoromethyl)piperazine]
Survival Ratio 7 Days After Infection ([32]; 4 mg/kg single dose): 0/5 | Survival Ratio 7 Days After Infection ([32]; 8 mg/kg single dose): 0/5 | Survival Ratio 7 Days After Infection ([32]; 16 mg/kg single dose): 5/5 | Survival Ratio 7 Days After Infection ([32]; 32 mg/kg single dose): 5/5 | Survival Ratio 7 Days After Infection ([32]; 64 mg/kg single dose): 5/5
